Results as given in US7361186B2, “Active body cooling with vasodilation to reduce body temperature” (priority 2003, dated 2008).
Several values for one entry are separate records, joined by “and”; a condition that tells them apart may be missing. Equal entries are not always repeated. Where two headings read alike, the source gives them in different places.

Legend:
healthy subjects [1] = conditions: Phase 4
Text: (§1) Mild hypothermia is induced and maintained in healthy subjects for up to several hours. […] Each volunteer is cooled using contact-cooling pads (Arctic Sun Energy Transfer Pads™, Medivance, Inc., Louisville, Colo., U.S.A.). Contact-cooling pads are applied to contact the subjects, and water at a controlled temperature is delivered to and circulated through the contact pads to effect the controlled cooling of each volunteer.

healthy subjects [2] = conditions: Phase 6
Text: Mild hypothermia is induced and maintained in healthy subjects for up to several hours. Table 1 summarizes data concerning the subjects for each phase of testing (Phases 1, 3a, 4, 5 and 6). Each volunteer is cooled using contact-cooling pads (Arctic Sun Energy Transfer Pads™, Medivance, Inc., Louisville, Colo., U.S.A.). Contact-cooling pads are applied to contact the subjects, and water at a controlled temperature is delivered to and circulated through the contact pads to effect the controlled cooling of each volunteer.
Five contact-cooling pads are applied to the thighs, back and abdomen of each subjects, and actively cooled. The pads cover and contact about 0.6 square meter of the subject's exterior body surface area, which is the area in heat transfer communication between the pads and the subject's body. Temperatures are measured in the same manner as in Phase 1 except that the rectal temperature probe is connected to a control module and the rectal temperature signal is used by the control module to adjust inlet water temperature via a feedback control algorithm to achieve a target core body temperature of 34.5° C.
A single oral dose of acetaminophen (1000 mg), is administered within 20 minutes prior to treatment. A bolus of IV meperidine (Demerol®, 50-100 mg) is given within 5 minutes of the start of active cooling. Additional doses of meperidine are administered to maintain comfort and to prevent shivering. Active cooling and maintenance of hypothermia continues for five hours. As in the Phase 1, the subjects are actively re-warmed to a tympanic and rectal temperatures of at least of 36° C. prior to termination of the experiment. Shivering, comfort, oxyhemoglobin saturation, and arterial blood pressure are recorded as in Phase 1.
Phase 5 Phase 5 proceeds as described for Phase 3a, except as noted. The temperature of water circulated to the contact-cooling pads is controlled to achieve a target core body temperature of 34.5° C. In addition to meperidine (Demerol®), subjects are also given an IV dose of 8 mg ondansetron (hydrochloride salt, Glaxo Wellcome). […]

healthy subjects [3] = assay: Phase 3a: cooling with five contact-cooling pads under meperidine; type: in vivo, human
Text: as §1

healthy subjects [4] = assay: Phase 1: cooling of healthy subjects with contact-cooling pads under meperidine; type: in vivo, human
Experimental: Four contact pads are applied to the thighs and chest of each subject and each subject is rapidly cooled with an objective of reducing core body temperature to 34-35° C. Core body temperatures are measured at the tympanic membrane and the rectum. Mean skin-surface temperature is determined from the weighted average of calf, thigh, chest, and upper arm skin temperatures. Thermoregulatory vasoconstriction is evaluated using forearm minus fingertip skin-temperature gradients. Temperatures are measured using Mon-a-Therm™ themocouple probes connected to Mallinckrodt Model 6510 two-channel electronic thermometers having an accuracy near 0.1° C. (Mallinckrodt Anesthesia Products, St. Louis, Mo., U.S.A.). Temperatures are recorded before cooling is started (i.e., baseline) and subsequently at 15-minute intervals.
Each of subjects 1-5 is administered a single dose of acetomiophen (1000 mg) within 20 minutes prior to treatment and is administered a bolus of intravenous (IV) meperidine (Demerol®, 25-75 mg) within 5 minutes of the start of cooling. Subjects also receive initial doses of chlorpromazine (Thorazine®, 12.5-25 mg, IV). Active cooling is initiated and the inlet water temperature is controlled to achieve a target tympanic temperature between 34° C. and 35° C. Additional doses of meperidine and/or chloropromazine are administered to maintain comfort and to prevent shivering. Active cooling and maintenance of hypothermia continues for up to five hours, after which subjects are actively re-warmed to tympanic and rectal temperatures of at least 36° C.
The presence of shivering is noted by physical examination, electromyographic artifact on continuous electrocardiography (ECG), or by subject report. Overall thermal comfort is evaluated at 15-min intervals with a 100-mm-long visual analog scale (VAS) on which 0 mm defines the worst imaginable cold, 50 mm identifies thermal neutrality, and 100 mm indicates unbearable heat. A new, unmarked scale is used for each assessment. Heart rate and oxyhemoglobin saturation are monitored using ECG and pulse oximetry; arterial blood pressure is recorded oscillometrically at 15-minute intervals.

healthy subjects [5] = assay: Phase 5: cooling under meperidine plus IV ondansetron; type: in vivo, human
healthy subjects [6] = assay: Subsequent test similar to Phase 5 with supplemental ondansetron dose; type: in vivo, human; conditions: one subject; ondansetron 8 mg initial dose and 8 mg supplemental dose 3.5 hours later
Experimental: Moreover, during a subsequent test conducted in a manner similar to that described for Phase 5, a subject is administered an initial dose of 8 mg of the ondansetron followed by a supplemental dose of 8 mg of the ondansetron administered 3.5 hours later.

[7] = meperidine plus buspirone, mean of 4 subjects
[8] = meperidine, ondansetron and magnesium sulfate, mean of 8 subjects
[9] = Phase 3a, meperidine regimen, individual subjects
[10] = Phase 3a, meperidine regimen, mean of 5 subjects
[11] = meperidine regimen, mean of 5 subjects
[12] = Phase 5, meperidine plus ondansetron, mean of 6 subjects

O=C1CC2(CCCC2)CC(=O)N1CCCCN1CCN(c2ncccn2)CC1 [buspirone]
Cooling rate to 35° C., Mean ± SD (healthy subjects [1]; [7]): 1.2 ± 0.4 ° C./hr | Time to 35° C., Mean ± SD (healthy subjects [1]; [7]): 109 ± 40 min | effect on incidence of nausea (healthy subjects [1]; oral buspirone 30-60 mg with meperidine, four subjects): did not reduce the incidence of nausea

O=S(=O)([O-])[O-].[Mg+2] [magnesium sulfate]
indications of vasodilation (Tdig being larger than Tfore) (healthy subjects [2]; early stages of cooling): seven of eight subjects | Cooling rate to 35° C., Mean ± SD (healthy subjects [2]; [8]): 1.3 ± 0.4 ° C./hr | Time to 35° C., Mean ± SD (healthy subjects [2]; [8]): 86 ± 23 min

CCOC(=O)C1(c2ccccc2)CCN(C)CC1 [meperidine]
Systolic blood pressure (healthy subjects [3]; Phase 3a, 180 min timepoint, baseline 122±13, p=0.042): 140±20 mm Hg | change in heart rate, diastolic blood pressure, or blood oxygenation compared with baseline (healthy subjects [3]; Phase 3a, all subjects, during cooling): no statistically significant change | Time to 35° C. (healthy subjects [3]; Phase 3a, five contact-cooling pads, oral acetaminophen 1000 mg, IV meperidine 50-100 mg bolus plus additional doses, tympanic temperature, individual subjects): 64 min and 180 min and 94 min and 56 min and 46 min | Cooling rate to 35° C. (healthy subjects [3]; [9]): 1.9 ° C./hr (2×) and .9 ° C./hr and 1.2 ° C./hr and 2.1 ° C./hr | Nausea or Vomiting During Treatment (healthy subjects [3]; [9]): Nausea end (2×) and None and Nausea early, end and Nausea, vomiting mid | Cooling rate to 35° C., Mean ± SD (healthy subjects [3]; [10]): 1.6 ± 0.5 ° C./hr | Time to 35° C., Mean ± SD (healthy subjects [3]; [10]): 88 ± 54 min | respiratory compromise (healthy subjects [3]; Phases 1 and 3a): no respiratory compromise | nausea observed, share of subjects (healthy subjects [3]; Phases 1 and 3a pooled, all cases in Phase 3a): 30 % of subjects | indications of vasodilation (Tdig being larger than Tfore) (healthy subjects [3]; Phases 3a, 4 and 5 (no vasodilation drug), early stages of cooling): only a few of the subjects | Time to 35° C. (healthy subjects [4]; four contact pads, acetaminophen 1000 mg, IV meperidine 25-75 mg bolus plus additional doses, chlorpromazine, tympanic temperature, individual subjects): 105 min and 78 min and 41 min and 82 min and 81 min | Nausea or Vomiting During Treatment (healthy subjects [4]; meperidine regimen, individual subjects): None | Cooling rate to 35° C., Mean ± SD (healthy subjects [4]; [11]): 1.5±0.6 ° C./hr and 1.5 ± .6 ° C./hr | Time to 35° C., Mean ± SD (healthy subjects [4]; [11]): 77 ± 23 min | Cooling rate to 35° C. (healthy subjects [4]; meperidine regimen, tympanic temperature, individual subjects): 1.0 ° C./hr and 1.5 ° C./hr and 2.6 ° C./hr and 1.2 ° C./hr and 1.4 ° C./hr | allergic reaction (healthy subjects [5]; Phase 5, one subject withdrawn, facial rash): mild allergic reaction

Cc1nccn1CC1CCc2c(c3ccccc3n2C)C1=O (stereo not drawn) [ondansetron]
Cumulative Heat Transfer From Subject, 5 Min (healthy subjects [5]; Phase 5, 5 Min after initiation of cooling, gross values, corrected values approximately 15% smaller, individual subjects): 53.91 kcal and 37.16 kcal and 48.61 kcal and 45.90 kcal and 44.85 kcal | Cumulative Heat Transfer From Subject, 10 Min (healthy subjects [5]; Phase 5, 10 Min after initiation of cooling, gross values, individual subjects): 96.81 kcal and 73.79 kcal and 84.78 kcal and 82.99 kcal and 79.01 kcal | Cumulative Heat Transfer From Subject, 15 Min (healthy subjects [5]; Phase 5, 15 Min after initiation of cooling, gross values, individual subjects): 136.59 kcal and 109.68 kcal and 124.12 kcal and 118.51 kcal and 111.35 kcal | Cumulative Heat Transfer From Subject, 20 Min (healthy subjects [5]; Phase 5, 20 Min after initiation of cooling, gross values, individual subjects): 175.59 kcal and 142.73 kcal and 163.01 kcal and 151.96 kcal and 142.43 kcal | Cumulative Heat Transfer From Subject, 25 Min (healthy subjects [5]; Phase 5, 25 Min after initiation of cooling, gross values, individual subjects): 214.2 kcal and 169.85 kcal and 200.85 kcal and 184.79 kcal and 172.00 kcal | Cumulative Heat Transfer From Subject, 30 Min (healthy subjects [5]; Phase 5, 30 Min after initiation of cooling, gross values, individual subjects): 252.02 kcal and 184.74 kcal and 239.02 kcal and 218.02 kcal and 201.44 kcal | Cumulative Heat Transfer From Subject, 45 Min (healthy subjects [5]; Phase 5, 45 Min after initiation of cooling, gross values, individual subjects): 360.32 kcal and 205.19 kcal and 354.67 kcal and 309.30 kcal and 282.20 kcal | Cumulative Heat Transfer From Subject, 60 Min (healthy subjects [5]; Phase 5, 60 Min after initiation of cooling, gross values, individual subjects): 466.28 kcal and 212.94 kcal and 467.30 kcal and 346.56 kcal and 353.28 kcal | Cumulative Heat Transfer From Subject, 75 Min (healthy subjects [5]; Phase 5, 75 Min after initiation of cooling, gross values, individual subjects): 567.71 kcal and 284.94 kcal and 574.88 kcal and 361.63 kcal and 423.43 kcal | Cumulative Heat Transfer From Subject, 90 Min (healthy subjects [5]; Phase 5, 90 Min after initiation of cooling, gross values, individual subjects): 667.78 kcal and 348.14 kcal and 676.99 kcal and 367.39 kcal and 436.35 kcal | Cumulative Heat Transfer From Subject, 105 Min (healthy subjects [5]; Phase 5, 105 Min after initiation of cooling, gross values, individual subjects): 767.83 kcal and 375.85 kcal and 708.76 kcal and 366.43 kcal and 458.46 kcal | Cumulative Heat Transfer From Subject, 120 Min (healthy subjects [5]; Phase 5, 120 Min after initiation of cooling, gross values, individual subjects): 867.73 kcal and 407.01 kcal and 733.20 kcal and 368.56 kcal and 457.78 kcal | effect on incidence of nausea and vomiting (healthy subjects [5]; Phase 5, IV ondansetron 8 mg with meperidine, relative to Phases 3a and 4): reduces the incidence of nausea and vomiting | Time to 35° C. (healthy subjects [5]; Phase 5, as Phase 3a (meperidine) plus IV ondansetron 8 mg, individual subjects): 58 min and 88 min and 310 min and 189 min and 60 min and 80 min | Cooling rate to 35° C. (healthy subjects [5]; Phase 5, meperidine plus IV ondansetron 8 mg, individual subjects): 1.4 ° C./hr and 1.6 ° C./hr and 0.5 ° C./hr and 0.6 ° C./hr and 1.9 ° C./hr and 1.5 ° C./hr | Cooling rate to 35° C., Mean ± SD (healthy subjects [5]; [12]): 1.3 ° C./hr and 1.3 ± 0.6 ° C./hr | Time to 35° C., Mean ± SD (healthy subjects [5]; [12]): 131 ± 100 min | meperidine administration relative to Phase 3a (healthy subjects [5]; Phase 5, p=0.26, t-test): trend toward less meperidine administration | mean comfort score (healthy subjects [5]; Phase 5 versus Phases 1, 3a and 4): higher | nausea (healthy subjects [6]): does not experience nausea
